Experimental data: patent US4458079A, “Sulfur-containing imidazoles” (Bristol-Myers Company, priority 1980, dated 1984)
≈ marks a conversion by molar mass, not a printed value.

Columns and labels:
Assay type in all cases: cell-based
[1] = tested on: Candida albicans; test: MIC in Sabouraud broth (broth dilution); conditions: 24 h, read-out: Minimum Inhibitory Concentration (MIC)
From the text: (§1) The antifungal activity of some of the compounds of Formula I against a number of human and animal pathogenic fungi is given in Table I for either a liquid medium (Sabouraud broth) or an agar medium (Sabouraud broth plus 1% ionagar). Two-fold serial dilutions were made with Sabouraud's liquid medium from stock solutions of the test compounds, usually in dimethyl sulfoxide, N,N-dimethylformamide or water. The Minimum Inhibitory Concentrations (MIC's), which were considered to be the minimum concentrations of the test compounds in micrograms per milliliter which prevent grossly detectable growth of the test organisms, were then determined after inoculation of the medicated broths with the test organisms, and incubation at the appropriate temperature and for the appropriate time interval. Candida species were incubated for 24 hours at 37°, while the dermatophytes Trichophyton rubrum, Trichophyton mentagrophytes and Microsporum canis were incubated for five days at 28°. The agar dilution assay was essentially the same as the broth dilution assay except that 1% inoagar was added to the Sabouraud broth.

[2] = tested on: Candida krusei; test: MIC in Sabouraud broth (broth dilution); conditions: Pichia kudriavzevii, strain A 15052, 24 hours at 37°, read-out: Minimum Inhibitory Concentration (MIC)
From the text: as §1

[3] = tested on: Candida tropicalis; test: MIC in Sabouraud broth (broth dilution); conditions: strain A 15051, 24 hours at 37°, read-out: Minimum Inhibitory Concentration (MIC)
From the text: as §1

[4] = tested on: Microsporum canis; test: MIC in Sabouraud broth (broth dilution); conditions: 120 h, read-out: Minimum Inhibitory Concentration (MIC)
From the text: as §1

[5] = tested on: Trichophyton mentagrophytes; test: MIC in Sabouraud broth (broth dilution); conditions: 120 h, strain A 9870, five days at 28°, read-out: Minimum Inhibitory Concentration (MIC)
From the text: as §1

[6] = tested on: Trichophyton rubrum; test: MIC in Sabouraud broth (broth dilution); conditions: 120 h, strain A 22789, five days at 28°, read-out: Minimum Inhibitory Concentration (MIC)
From the text: as §1

[7] = tested on: Candida albicans; test: MIC in Sabouraud broth plus 1% ionagar (agar dilution); conditions: 24 h, read-out: Minimum Inhibitory Concentration (MIC)
From the text: as §1

[8] = tested on: Candida krusei; test: as above; conditions: Pichia kudriavzevii, strain A 15052, 24 hours at 37°, read-out: Minimum Inhibitory Concentration (MIC)
From the text: as §1

[9] = tested on: Candida tropicalis; test: as above; conditions: strain A 15051, 24 hours at 37°, read-out: Minimum Inhibitory Concentration (MIC)
From the text: as §1

[10] = tested on: Microsporum canis; test: as above; conditions: 120 h, read-out: Minimum Inhibitory Concentration (MIC)
From the text: as §1

[11] = tested on: Trichophyton mentagrophytes; test: as above; conditions: 120 h, strain A 9870, five days at 28°, read-out: Minimum Inhibitory Concentration (MIC)
From the text: as §1

[12] = tested on: Trichophyton rubrum; test: as above; conditions: 120 h, strain A 22789, five days at 28°, read-out: Minimum Inhibitory Concentration (MIC)
From the text: as §1

[13] = strain A 15049, 24 hours at 37°
[14] = strain A 9872, five days at 28°
[15] = strain A 22494, five days at 28°

Row | SMILES | MIC ([1]; strain A 1505, 24 hours at 37°) | MIC ([1]; strain A 9540, 24 hours at 37°) | MIC [1, 13] | MIC [2] | MIC [3] | MIC [4, 14] | MIC [4, 15] | MIC [5] | MIC [6] | MIC ([7]; strain A 1505, 24 hours at 37°) | MIC ([7]; strain A 9540, 24 hours at 37°) | MIC [7, 13] | MIC [8] | MIC [9] | MIC [10, 14] | MIC [10, 15] | MIC [11] | MIC [12]
1 | Clc1ccc(CSC(Cn2ccnc2)SCc2ccc(Cl)cc2Cl)c(Cl)c1 [2(g), 1-[2,2-bis(2,4-dichlorobenzylthio)ethyl]-1H-imidazole] | > 16 µg/mL | > 16 µg/mL | > 16 µg/mL | > 16 µg/mL | > 16 µg/mL | 0.032 µg/mL (≈ 0.0669 µM) | 0.063 µg/mL (≈ 0.132 µM) | 0.063 µg/mL (≈ 0.132 µM) | 0.063 µg/mL (≈ 0.132 µM) |  |  |  |  |  |  |  |  | 
2 | Clc1cccc(Cl)c1CSC(Cn1ccnc1)SCc1c(Cl)cccc1Cl.O=C(O)C(=O)O [2(h), 1-[2,2-bis(2,6-dichlorobenzylthio)ethyl]-1H-imidazole hydrogen oxalate] |  |  |  |  |  |  |  |  |  | 16 µg/mL | 8 µg/mL | 16 µg/mL | 32 µg/mL | 63 µg/mL | 1 µg/mL | 0.25 µg/mL | 1 µg/mL | 0.5 µg/mL
3 | Cc1ccc(CSC(Cn2ccnc2)SCc2ccc(C)cc2)cc1.Cl [2(j), 1-[2,2-bis(4-methylbenzylthio)ethyl]-1H-imidazole hydrochloride] | 4 µg/mL | 4 µg/mL | 4 µg/mL | 8 µg/mL | > 16 µg/mL | 0.063 µg/mL | 0.063 µg/mL | 0.063 µg/mL | 0.063 µg/mL |  |  |  |  |  |  |  |  | 
4 | CSc1ccc(CSC(Cn2ccnc2)SCc2ccc(SC)cc2)cc1.Cl [2(l), 1-[2,2-bis(4-methylthiobenzylthio)ethyl]-1H-imidazole hydrochloride] | > 16 µg/mL | > 16 µg/mL | > 16 µg/mL | 8 µg/mL | > 16 µg/mL | 0.063 µg/mL | 0.13 µg/mL | 0.063 µg/mL | 0.063 µg/mL |  |  |  |  |  |  |  |  | 
5 | Cl.Clc1ccc(CSC(Cn2ccnc2)SCc2ccc(Cl)s2)s1 [2(p), 1-[2,2-bis(5-chloro-2-thienylmethylthio)ethyl]-1H-imidazole hydrochloride] |  |  |  |  |  |  |  |  |  | 4 µg/mL | 4 µg/mL | 4 µg/mL | 8 µg/mL | 125 µg/mL | 0.25 µg/mL | 0.032 µg/mL | 0.5 µg/mL | 0.5 µg/mL
6 | Cl.Clc1ccc(CSC(Cn2ccnc2)SCc2ccc(Cl)cc2)cc1 [Example 1, 1-[2,2-Bis(4-chlorobenzylthio)ethyl]-1H-imidazole Hydrochloride] | 2 µg/mL | 1 µg/mL | 2 µg/mL | 0.5 µg/mL | > 16 µg/mL | 0.032 µg/mL | 0.063 µg/mL | 0.032 µg/mL | 0.063 µg/mL |  |  |  |  |  |  |  |  | 
7 | Cl.Clc1ccc(CSC(Cn2ccnc2)Sc2ccc(Cl)cc2)cc1 (stereo not drawn) [Example 5, 1-[2-(4-Chlorobenzylthio)-2-(4-chlorophenylthio)ethyl]-1H-imidazole Hydrochloride] |  |  |  |  |  |  |  |  |  | 4 µg/mL | 4 µg/mL | 4 µg/mL | 4 µg/mL | 32 µg/mL | 0.25 µg/mL | 0.032 µg/mL | 0.063 µg/mL | 0.25 µg/mL
